According to BigSolDB 2.1:

C[C@@H](Oc1ccc(Oc2nc3ccc(Cl)cc3o2)cc1)C(=O)N(C)c1ccccc1F
solubility (mole fraction)
Conditions	in cyclohexane	in isobutanol	in isopentanol	in isopropanol	in n-butanol	in n-hexane	in n-pentanol	in n-propanol	in sec-butanol
278.15 K	–	0.00347	0.00526	0.00231	0.00631	0.000329	0.00739	0.00476	0.00344
283.15 K	0.00449	0.00487	0.00724	0.00315	0.00822	0.000495	0.00951	0.00646	0.00491
288.15 K	0.00627	0.00676	0.00977	0.00422	0.0109	0.000594	0.0123	0.00876	0.00683
293.15 K	0.00814	0.00921	0.013	0.00543	0.0139	0.000811	0.015	0.0115	0.00919
298.15 K	0.0115	0.0126	0.0173	0.00714	0.0183	0.00112	0.0187	0.0155	0.0122
303.15 K	0.0146	0.0169	0.0216	0.00963	0.0237	0.00156	0.0228	0.0209	0.016
308.15 K	0.0208	–	–	–	–	0.00196	–	–	–
313.15 K	0.0287	–	–	–	–	0.00245	–	–	–
